Experimental data as given in ChEMBL document CHEMBL1201862, “PubChem BioAssay data set” (2004).
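Each compound was tested at five concentrations against cells in 96-well plates for 48 hours. The concentration for 50% growth inhibition is given as GI50.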 Activity calls are given as the source filed them. Cut-off read from the data, not from the text of the source: active = GI50 up to about 1.1 µM and inactive = higher.

Columns and labels:
Assay in all cases: inhibition of tumour cell growth, NCI panel, 48 h
A498 = test system: A498
A549 = test system: A549
ACHN = test system: ACHN
CAKI-1 = test system: CAKI-1
CCRF-CEM = test system: CCRF-CEM
COLO 205 = test system: COLO 205
DLD-1 = test system: DLD-1
DMS-273 = test system: DMS-273
EKVX = test system: EKVX
HCC 2998 = test system: HCC 2998
HCT-116 = test system: HCT-116
HCT-15 = test system: HCT-15
HL-60 = test system: HL-60
HOP-62 = test system: HOP-62
HOP-92 = test system: HOP-92
HT-29 = test system: HT-29
IGROV-1 = test system: IGROV-1
K562 = test system: K562
KM-20L2 = test system: KM-20L2
KM12 = test system: KM12
LOX IMVI = test system: LOX IMVI
LXFL 529 = test system: LXFL 529
M14 = test system: M14
M19-MEL = test system: M19-MEL
MOLT-4 = test system: MOLT-4
NCI-H226 = test system: NCI-H226
NCI-H23 = test system: NCI-H23
NCI-H460 = test system: NCI-H460
NCI-H522 = test system: NCI-H522
OVCAR-4 = test system: OVCAR-4
OVCAR-5 = test system: OVCAR-5
OVCAR-8 = test system: OVCAR-8
RPMI-8226 = test system: RPMI-8226
SF-268 = test system: SF-268
SF-295 = test system: SF-295
SF-539 = test system: SF-539
SK-MEL-28 = test system: SK-MEL-28
SK-MEL-2 = test system: SK-MEL-2
SK-MEL-5 = test system: SK-MEL-5
SK-OV-3 = test system: SK-OV-3
SN12C = test system: SN12C
SNB-19 = test system: SNB-19
SNB-75 = test system: SNB-75
SNB-78 = test system: SNB-78
SR = test system: SR
SW-620 = test system: SW-620
TK-10 = test system: TK-10
U-251 = test system: U-251
UACC-257 = test system: UACC-257
UACC-62 = test system: UACC-62
UO-31 = test system: UO-31
XF498 = test system: XF498
786-0 = test system: 786-0
DMS-114 = test system: DMS-114
HOP-18 = test system: HOP-18
OVCAR-3 = test system: OVCAR-3
RXF 393 = test system: RXF 393
Malme-3M = test system: Malme-3M

Measured: GI50

[O-][S+]1c2ccccc2N=C(c2ccc3ccccc3c2)CC1c1ccccc1 (stereo not given)
16.4 µM: HCT-15
inactive: A498 17.4 µM | A549 21.3 µM | ACHN 16.4 µM | CAKI-1 25.1 µM | CCRF-CEM 31.8 µM | COLO 205 19.1 µM | DLD-1 19 µM | DMS-273 38.6 µM | EKVX 25.1 µM | HCC 2998 21.9 µM | HCT-116 19.1 µM | HL-60 25.9 µM | HOP-62 29.3 µM | HOP-92 35.6 µM | HT-29 17.4 µM | IGROV-1 16.9 µM | K562 23.7 µM | KM-20L2 18.7 µM | KM12 13.9 µM | LOX IMVI 21.1 µM | LXFL 529 16.1 µM | M14 47.2 µM | M19-MEL 17.9 µM | MOLT-4 31 µM | NCI-H226 23.3 µM | NCI-H23 17.9 µM | NCI-H460 19.7 µM | NCI-H522 18.2 µM | OVCAR-4 20.2 µM | OVCAR-5 21.5 µM | OVCAR-8 16.4 µM | RPMI-8226 29.6 µM | SF-268 18.2 µM | SF-295 19.9 µM | SF-539 18.4 µM | SK-MEL-28 43 µM | SK-MEL-2 30.8 µM | SK-MEL-5 27.7 µM | SK-OV-3 36.2 µM | SN12C 34.4 µM | SNB-19 17.9 µM | SNB-75 17.1 µM | SNB-78 47.3 µM | SR 17.9 µM | SW-620 15.3 µM | TK-10 22.8 µM | U-251 18.6 µM | UACC-257 28.1 µM | UACC-62 36.6 µM | UO-31 18.4 µM | XF498 23.9 µM

Cc1ccc(/C=C(\C#N)c2ccccc2)cc1
inactive: 786-0 > 100 µM | A498 > 100 µM | ACHN > 100 µM | CAKI-1 > 100 µM | CCRF-CEM > 100 µM | COLO 205 > 100 µM | DLD-1 > 100 µM | DMS-114 > 100 µM | DMS-273 > 100 µM | HCC 2998 > 100 µM | HCT-116 > 100 µM | HOP-18 > 100 µM | HOP-62 > 100 µM | HOP-92 > 100 µM | HT-29 > 100 µM | IGROV-1 > 100 µM | K562 > 100 µM | KM-20L2 > 100 µM | KM12 > 100 µM | LOX IMVI > 100 µM | LXFL 529 > 100 µM | M14 > 100 µM | M19-MEL > 100 µM | MOLT-4 > 100 µM | NCI-H226 > 100 µM | NCI-H23 > 100 µM | NCI-H460 > 100 µM | NCI-H522 > 100 µM | OVCAR-3 > 100 µM | OVCAR-4 > 100 µM | OVCAR-5 > 100 µM | OVCAR-8 > 100 µM | RPMI-8226 > 100 µM | RXF 393 > 100 µM | SF-268 > 100 µM | SF-295 > 100 µM | SF-539 > 100 µM | SK-MEL-28 > 100 µM | SK-MEL-2 > 100 µM | SK-MEL-5 > 100 µM | SK-OV-3 > 100 µM | SN12C > 100 µM | SNB-75 > 100 µM | SNB-78 > 100 µM | SR > 100 µM | SW-620 > 100 µM | TK-10 > 100 µM | U-251 > 100 µM | UACC-257 > 100 µM | UACC-62 > 100 µM | UO-31 > 100 µM
> 100 µM: HCT-15

CCOc1ccc(/C=C/C(=O)c2sc(NNC(C)=O)nc2C)cc1
> 100 µM: HCT-15
inactive: 786-0 > 100 µM | A498 > 100 µM | A549 > 100 µM | ACHN > 100 µM | CAKI-1 > 100 µM | CCRF-CEM > 100 µM | COLO 205 > 100 µM | DLD-1 > 100 µM | DMS-114 > 100 µM | DMS-273 > 100 µM | EKVX 85.1 µM | HCC 2998 > 100 µM | HL-60 > 100 µM | HOP-18 > 100 µM | HOP-62 > 100 µM | HOP-92 > 100 µM | HT-29 > 100 µM | IGROV-1 > 100 µM | K562 > 100 µM | KM-20L2 > 100 µM | KM12 > 100 µM | LOX IMVI > 100 µM | M19-MEL > 100 µM | MOLT-4 > 100 µM | Malme-3M > 100 µM | NCI-H23 > 100 µM | NCI-H460 > 100 µM | NCI-H522 > 100 µM | OVCAR-3 > 100 µM | OVCAR-5 > 100 µM | OVCAR-8 > 100 µM | RPMI-8226 > 100 µM | RXF 393 > 100 µM | SF-268 > 100 µM | SF-295 > 100 µM | SF-539 > 100 µM | SK-MEL-28 > 100 µM | SK-MEL-2 > 100 µM | SK-MEL-5 > 100 µM | SK-OV-3 > 100 µM | SN12C > 100 µM | SNB-19 > 100 µM | SNB-75 > 100 µM | SNB-78 > 100 µM | SW-620 > 100 µM | TK-10 > 100 µM | U-251 > 100 µM | UACC-257 > 100 µM | UACC-62 > 100 µM | UO-31 > 100 µM
